Our source for the IC50 values is patent publication US11066365B2, “1-cyano-pyrrolidine compounds as USP30 inhibitors” (Mission Therapeutics Limited, priority 2015, dated 2021).

The target of this experiment is USP30 (Homo sapiens (Human), UniProt Q70CQ3). The experiment is described as follows: USP30 biochemical IC50 assay (fluorescence polarisation, FP). The note with it: USP30 biochemical FP or FI IC50 assay (table does not say which format per compound); read-out: IC50 range. The protocol: In Vitro USP30 FP Inhibition Assay
Sequence of USP30 (Q70CQ3 57-517): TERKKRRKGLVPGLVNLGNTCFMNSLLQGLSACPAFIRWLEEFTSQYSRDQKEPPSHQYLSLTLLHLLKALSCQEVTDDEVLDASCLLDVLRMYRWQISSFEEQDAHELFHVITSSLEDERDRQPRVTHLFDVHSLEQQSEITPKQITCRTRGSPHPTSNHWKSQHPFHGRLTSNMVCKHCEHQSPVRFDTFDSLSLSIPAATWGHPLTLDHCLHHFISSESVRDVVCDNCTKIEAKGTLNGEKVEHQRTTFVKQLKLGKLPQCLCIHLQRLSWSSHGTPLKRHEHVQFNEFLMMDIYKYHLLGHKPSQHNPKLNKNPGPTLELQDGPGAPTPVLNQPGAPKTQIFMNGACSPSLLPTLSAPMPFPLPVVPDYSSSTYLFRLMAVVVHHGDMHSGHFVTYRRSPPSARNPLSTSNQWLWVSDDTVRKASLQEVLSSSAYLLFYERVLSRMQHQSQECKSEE
USP30 Biochemical IC50 Assay
Dilution plates were prepared at 21 times the final concentration (2100 μM for a final concentration of 100 μM) in 50% DMSO in a 96-well polypropylene V-bottom plate (Greiner #651201). A typical 8-point dilution series would be 100, 30, 10, 3, 1, 0.3, 0.1, 0.03 μM final. Reactions were performed in duplicate in black 384 well plates (small volume, Greiner 784076) in a final reaction volume of 21 μl. Either 1 μl of 50% DMSO or diluted compound was added to the plate. USP30 was diluted in reaction buffer (40 mM Tris, pH 7.5, 0.005% Tween 20, 0.5 mg/ml BSA, 5 mM beta-mercaptoethanol) to the equivalent of 0.05 μl/well and 10 μl of diluted USP30 was added to the compound. Enzyme and compound were incubated for 30 min at room temp. Reactions were initiated by the addition of 50 nM of TAMRA labelled peptide linked to ubiquitin via an iso-peptide bond as fluorescence polarisation substrate. Reactions were read immediately after addition of substrate and following a 2 hr incubation at room temperature. Readings were performed on a Pherastar Plus (BMG Labtech).

Take “rac-(3aR,6aR)-1-(3-phenyl-1H- pyrazole-5- carbonyl)hexahydropyrrolo[3,4- bipyrrole-5(1H)-carbonitrile [Example 52]”: the IC50 is 100 to 1000 nM.

What is called IC50 is the concentration needed to halve the response being measured.
